Test results published in patent publication US20110280815A1, “COMPOSITION FOR INHIBITING MELANIN PRODUCTION AND APPLICATION THEREOF” (priority 2010, published 2011).
Like-named read-outs stand apart in the source and are kept apart here.

How the values were obtained:
[1] = test system: human epidermal melanocyte (HEM); assay: Inhibiting melanin in cell line model, human epidermal melanocyte (HEM); format: cell-based; details: 200 μg/mL in medium, 72 hours, compared with blank control group (FIG. 5)
Protocol: (§1) In this example, the tyrosinase inhibitor of the present invention was used to inhibit melanin production in melanocytes. The cell lines used in this example are mouse melanoma (B16-F1; ATCC CRL-6323) and human epidermal melanocyte (HEM). After 72 hours, cells and cell culture medium were collected separately. Then, the collected cells were destroyed by ultrasonic for melanin examination.

B16-F1 cells = assay: Inhibiting melanin in cell line model, mouse melanoma B16-F1; format: cell-based; details: for inhibition of melanin production of mouse melanoma (microscopic image): 200 μg/ml, cultured 72 hours (FIG. 2); for inhibition at 200 µg/mL: Mus musculus, B16-F1, 200 μg/mL in medium
Protocol: as §1

tyrosinase = assay: Inhibiting tyrosinase (L-Dopa oxidation, dopachrome absorption at 492 nm); format: biochemical; details: series diluted sample, 0.1 U tyrosinase, 1 mM L-Dopa, 37° C., compared with blank control group (FIG. 1)
Protocol: In this example, 90 μL of 0.1 U tyrosinase solution was added in to the wells of a 96-well plate. Then, 50 μL of a series diluted sample was added into the wells as an experimental group or as a blank control group, wherein said sample is MOPS, SB-12(N-Dodecyl-N,N-dimethyl-3-ammonio-1-propanesulfonate), ACES or Tris-HCl, and 0.1 M phosphate buffer and a substance lysis solution were used as blank tests for the experimental group and the blank control group, respectively. Each sample in the experiment was at least triplicated. The test plate was placed at 37° C., 400 rpm for 5 min to mix the contents thereof homogeneously. Then, the test plate was placed into a machine for an absorption examination (492 nm). An average of two detected data was obtained as a background value. The test plate was then taken out, and 60 μL of 1 mM L-Dopa solution was added into each well. […] At this time, an average of two detected data was obtained as a test value.
In example 1, by using the tyrosinase inhibitor of the present invention, tyrosinase was inhibited to prevent melanin production. […] Accordingly, in this example, the absorption of the reaction at 492 nm was detected for examining the production of dopaquinone.
The data in the figure was calculated by the following formula: […]

[2] = 72 hours (FIG. 3), read-out: ability of inhibiting melanin production of B16-F1 cells
[3] = 72 hours, cell culture medium (FIG. 4), read-out: ability of inhibiting melanin secretion of B16-F1 cells

| SMILES | inhibition rate of melanin production of human epidermal melanocyte [1] | inhibition of melanin production of mouse melanoma (microscopic image) (B16-F1 cells) | inhibition at 200 µg/mL (B16-F1 cells; [2]) [%] | inhibition at 200 µg/mL (B16-F1 cells; [3]) [%] | inhibition of tyrosinase activity (tyrosinase) |
| --- | --- | --- | --- | --- | --- |
| O=S(=O)(O)CCCN1CCOCC1 [MOPS, 3-(N-Morpholino) propanesulfonic acid] | inhibition rate was increased | significantly inhibit | 41.7 | 42.3 | significantly inhibit the activity of tyrosinase |
| NC(=O)CNCCS(=O)(=O)O [ACES, N-(2-Acetamido)-2-aminoethanesulfonic acid] | inhibition rate was increased | significantly inhibit | 35 | 38.9 | significantly inhibit the activity of tyrosinase |
